{"source": "patent US20240324627A1", "about": "“USE OF A FEED ADDITIVE IN LOW ENERGY FEED FOR PIGS” (Alzchem Trostberg GmbH, priority 2021, published 2024)", "key": {"fattening pigs": {"system": "fattening pigs", "assay": "39-day feeding experiment in fattening pigs with low energy feed", "assay_type": "in vivo", "excerpt": "In a 39-day feeding experiment, three different feed concepts were fed to fattening pigs with an initial weight of ˜65 kg. For each feeding concept, 80 pigs in 16 pens (5 animals per pen) were examined. The pens were exclusively occupied by animals of the same gender, i.e. females or non-castrated boars, in a 1:1 gender ratio. The three different feed groups were optimized for the content of metabolic energy (ME) and the other raw nutrients based on the supply recommendations of the NRC (National Research Council of the National Academies, 2012: Nutrient requirements of Swine/Committee on Nutrient Requirements of Swine, Board on Agriculture and Natural Resources, Division on Earth and Life Studies.-11th rev. ed. p. cm.). A positive control group with 13.0 MJ ME covering the energy requirements was compared with a negative control group with 12.8 MJ ME reduced by 0.2 MJ. In a guanidinoacetic acid group supplemented with 600 g/t, an energy content of 12.7 MJ ME was adjusted. The fattening phase lasted 39 days. On day 40, the animals that had already reached the slaughter weight of ˜108 kg were slaughtered. For this reason, data was recorded on this day. The rations were based on wheat, wheat semolina bran, rapeseed extraction meal and soy extraction meal. Animal fat was also added in relevant amounts. The diets were isonitrogenous, i.e. the supply of crude protein and digestible amino acids was identical in all three treatment groups. [table] Feed conversion is the amount of feed consumed that leads to a weight gain of the animal of one kilogram. Energy utilization is the energy intake per kilogram of weight gain."}, "pigs": {"system": "pigs", "details": "Weber et al. 2017, cited from earlier work"}, "[1]": {"details": "600 g/t (0.06%) in 12.7 MJ ME/kg feed"}}, "data": [{"smiles": "N=C(N)NCC(=O)O", "note": "[guanidinoacetic acid, Guanidinoacetic acid]", "values": [{"measurement": "Daily feed intake, day 1-39", "setting": "fattening pigs; [1]", "value": 2223, "unit": "g"}, {"measurement": "Daily weight gain, day 1-39", "setting": "fattening pigs; [1]", "value": 828, "unit": "g"}, {"measurement": "Energy utilization, day 1-39", "setting": "fattening pigs; [1]", "value": 34.2, "unit": "MJ ME/kg gain"}, {"measurement": "Feed conversion, day 1-39", "setting": "fattening pigs; [1]", "value": 2.69, "unit": "kg feed/kg gain"}, {"measurement": "Live weight, day 39", "setting": "fattening pigs; [1]", "value": 96.2, "unit": "kg"}, {"measurement": "Average slaughter weight", "setting": "fattening pigs; 600 g/t in 12.7 MJ ME/kg feed", "value": 107.3, "unit": "kg"}, {"measurement": "Daily weight gains in the fattening phase", "setting": "fattening pigs; 600 g/t in 12.7 MJ ME/kg feed", "value": "approximately 830 g/d"}, {"measurement": "Energy deficit compensated", "setting": "fattening pigs; addition of 600 g/t, daily feed intake at level of positive control", "value": 0.2, "unit": "MJ ME"}, {"measurement": "Improvement of feed conversion ratio compared to the negative control", "setting": "fattening pigs; fattening phase, vs 12.8 MJ ME negative control", "value": 23, "unit": "points"}, {"measurement": "Improvement of feed conversion ratio compared to the positive control", "setting": "fattening pigs; fattening phase, vs 13.0 MJ ME positive control", "value": 6, "unit": "points"}, {"measurement": "Less energy required per kg gain vs negative control", "setting": "fattening pigs; fattening phase, vs negative control", "value": 4.3, "unit": "MJ ME"}, {"measurement": "Less energy required per kg gain vs positive control", "setting": "fattening pigs; fattening phase, vs positive control", "value": 2.1, "unit": "MJ ME"}, {"measurement": "Average number of fattening days (from the start of the fattening phase)", "setting": "fattening pigs; until slaughter, 600 g/t in 12.7 MJ ME/kg feed", "value": 52}, {"measurement": "Energy utilization improvement", "setting": "fattening pigs; vs positive control", "value": "approximately 5.8%"}, {"measurement": "Feed conversion improvement", "setting": "fattening pigs; vs positive control", "value": "approximately 2.2%"}, {"measurement": "Feed uptake", "setting": "pigs; addition to high energy feed", "value": "slightly lower"}, {"measurement": "Daily increase (weight gain)", "setting": "pigs; common feed", "value": "only a slight daily increase at the threshold of significance"}, {"measurement": "Feed conversion", "setting": "pigs; common feed", "value": "slight improvement"}]}]}
